Data as given in the kinase profiling compilation of Christmann-Franck et al. (2016).

How the values were obtained:
Assay in all cases: KINOMEscan competition binding
Conditions in all cases: compound 10.0 µM
[1] = target: AURKC (human) (UniProt Q9UQB9)
[2] = target: CAMK2G (human) (UniProt Q13555)
[3] = target: CDK17 (human) (UniProt Q00537)
[4] = target: EPHB1 (human) (UniProt P54762)
[5] = target: ERBB4 (human) (UniProt Q15303)
[6] = target: FGFR1 (human) (UniProt P11362)
[7] = target: FRK (human) (UniProt P42685)
[8] = target: HCK (human) (UniProt P08631)
[9] = target: HIPK1 (human) (UniProt Q86Z02)
Chain of HIPK1 (human) (Q86Z02 whole entry, looked up): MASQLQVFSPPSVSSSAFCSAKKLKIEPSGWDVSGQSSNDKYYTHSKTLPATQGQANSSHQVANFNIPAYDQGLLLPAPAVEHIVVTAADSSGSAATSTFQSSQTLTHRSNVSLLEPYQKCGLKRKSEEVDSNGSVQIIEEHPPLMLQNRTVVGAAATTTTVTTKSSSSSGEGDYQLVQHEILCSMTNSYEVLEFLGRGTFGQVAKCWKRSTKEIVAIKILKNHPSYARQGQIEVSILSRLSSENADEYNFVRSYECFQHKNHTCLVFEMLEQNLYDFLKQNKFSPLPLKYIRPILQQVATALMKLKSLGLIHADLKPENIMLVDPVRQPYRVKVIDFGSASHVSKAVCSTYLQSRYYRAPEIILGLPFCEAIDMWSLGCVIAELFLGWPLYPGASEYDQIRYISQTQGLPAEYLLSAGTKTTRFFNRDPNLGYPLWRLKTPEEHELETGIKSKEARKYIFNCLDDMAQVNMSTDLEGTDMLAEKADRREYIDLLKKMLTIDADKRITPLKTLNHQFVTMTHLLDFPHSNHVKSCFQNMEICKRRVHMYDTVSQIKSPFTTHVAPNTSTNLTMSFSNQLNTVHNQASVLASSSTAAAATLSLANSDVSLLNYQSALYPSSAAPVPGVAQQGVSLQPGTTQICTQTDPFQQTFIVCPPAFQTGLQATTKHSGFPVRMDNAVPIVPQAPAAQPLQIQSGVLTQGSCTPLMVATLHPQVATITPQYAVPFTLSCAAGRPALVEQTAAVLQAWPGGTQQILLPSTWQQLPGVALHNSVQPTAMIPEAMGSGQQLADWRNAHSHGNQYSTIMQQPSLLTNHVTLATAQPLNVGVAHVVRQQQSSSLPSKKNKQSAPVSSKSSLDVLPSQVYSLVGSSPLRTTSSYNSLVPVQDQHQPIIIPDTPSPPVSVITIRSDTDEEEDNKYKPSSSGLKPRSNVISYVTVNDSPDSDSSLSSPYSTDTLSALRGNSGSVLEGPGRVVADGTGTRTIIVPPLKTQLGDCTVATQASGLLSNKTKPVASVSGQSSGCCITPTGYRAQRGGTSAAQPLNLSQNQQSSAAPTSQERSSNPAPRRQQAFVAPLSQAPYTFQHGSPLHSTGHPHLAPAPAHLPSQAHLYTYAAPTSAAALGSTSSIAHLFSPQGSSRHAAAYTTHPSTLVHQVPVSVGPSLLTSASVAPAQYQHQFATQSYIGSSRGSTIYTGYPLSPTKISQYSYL

[10] = target: JAK1 JH2 pseudokinase (human) (UniProt P23458)
Chain of JAK1 JH2 pseudokinase (human) (P23458 whole entry, looked up): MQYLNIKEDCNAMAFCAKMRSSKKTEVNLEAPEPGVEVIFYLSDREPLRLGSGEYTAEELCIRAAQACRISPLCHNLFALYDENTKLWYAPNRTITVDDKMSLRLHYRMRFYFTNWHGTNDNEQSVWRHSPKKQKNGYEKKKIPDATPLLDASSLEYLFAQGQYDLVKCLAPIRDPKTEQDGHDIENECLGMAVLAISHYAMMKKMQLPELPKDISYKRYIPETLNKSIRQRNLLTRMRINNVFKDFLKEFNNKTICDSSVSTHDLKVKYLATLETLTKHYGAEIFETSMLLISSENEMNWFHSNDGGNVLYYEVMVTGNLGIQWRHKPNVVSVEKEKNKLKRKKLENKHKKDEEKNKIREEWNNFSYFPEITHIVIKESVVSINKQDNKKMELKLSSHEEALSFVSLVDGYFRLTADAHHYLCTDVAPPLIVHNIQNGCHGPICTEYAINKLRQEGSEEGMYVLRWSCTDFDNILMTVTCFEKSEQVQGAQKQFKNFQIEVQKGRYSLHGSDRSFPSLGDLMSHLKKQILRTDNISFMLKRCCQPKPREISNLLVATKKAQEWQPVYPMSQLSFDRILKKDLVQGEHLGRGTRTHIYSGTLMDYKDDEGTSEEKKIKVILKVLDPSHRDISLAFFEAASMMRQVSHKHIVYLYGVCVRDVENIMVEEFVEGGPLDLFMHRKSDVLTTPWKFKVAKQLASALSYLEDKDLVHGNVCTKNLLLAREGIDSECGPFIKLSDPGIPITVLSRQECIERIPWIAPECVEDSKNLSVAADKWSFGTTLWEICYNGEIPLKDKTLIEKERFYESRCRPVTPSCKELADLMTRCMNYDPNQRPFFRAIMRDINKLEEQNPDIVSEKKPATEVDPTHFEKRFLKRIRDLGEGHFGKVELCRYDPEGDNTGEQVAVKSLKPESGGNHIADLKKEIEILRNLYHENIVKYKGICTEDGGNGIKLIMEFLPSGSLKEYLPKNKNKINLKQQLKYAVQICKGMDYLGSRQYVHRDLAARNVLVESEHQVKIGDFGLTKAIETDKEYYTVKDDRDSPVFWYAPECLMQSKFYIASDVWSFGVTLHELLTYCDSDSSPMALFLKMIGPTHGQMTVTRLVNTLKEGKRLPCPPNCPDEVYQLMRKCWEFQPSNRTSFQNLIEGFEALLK

[11] = target: MAP3K11 (human) (UniProt Q16584)
[12] = target: MAP3K9 (human) (UniProt P80192)
[13] = target: MAPK11 (human) (UniProt Q15759)
[14] = target: MAPKAPK5 (human) (UniProt Q8IW41)
[15] = target: MARK3 (human) (UniProt P27448)
[16] = tested on: MET (human), P08581 [Y1235D]
[17] = target: MKNK2 (human) (UniProt Q9HBH9)
Chain of MKNK2 (human) (Q9HBH9 whole entry, looked up): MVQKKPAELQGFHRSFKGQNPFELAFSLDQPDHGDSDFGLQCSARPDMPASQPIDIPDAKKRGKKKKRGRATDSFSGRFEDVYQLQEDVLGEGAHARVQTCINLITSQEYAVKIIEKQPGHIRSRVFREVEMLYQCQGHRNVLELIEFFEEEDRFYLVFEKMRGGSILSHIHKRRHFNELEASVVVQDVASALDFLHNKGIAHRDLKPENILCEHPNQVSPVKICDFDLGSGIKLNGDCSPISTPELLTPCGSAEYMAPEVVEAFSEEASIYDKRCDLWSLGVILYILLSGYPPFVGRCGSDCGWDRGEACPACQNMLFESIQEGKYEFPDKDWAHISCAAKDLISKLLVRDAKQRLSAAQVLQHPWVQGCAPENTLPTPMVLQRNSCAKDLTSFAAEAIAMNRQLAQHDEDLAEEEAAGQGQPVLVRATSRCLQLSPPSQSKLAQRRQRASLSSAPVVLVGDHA

[18] = target: MLTK (human) (UniProt Q9NYL2)
[19] = target: MTOR (human) (UniProt P42345)
[20] = target: MYLK (human) (UniProt Q15746)
[21] = target: MYLK4 (human) (UniProt Q86YV6)
[22] = target: NUAK1 (human) (UniProt O60285)
[23] = target: PAK7 (human) (UniProt Q9P286)
[24] = target: PHKG2 (human) (UniProt P15735)
[25] = target: PIK3CD (human) (UniProt O00329)
[26] = target: PRKX (human) (UniProt P51817)
[27] = target: RAF1 (human) (UniProt P04049)
[28] = target: RIPK1 (human) (UniProt Q13546)
Chain of RIPK1 (human) (Q13546 whole entry, looked up): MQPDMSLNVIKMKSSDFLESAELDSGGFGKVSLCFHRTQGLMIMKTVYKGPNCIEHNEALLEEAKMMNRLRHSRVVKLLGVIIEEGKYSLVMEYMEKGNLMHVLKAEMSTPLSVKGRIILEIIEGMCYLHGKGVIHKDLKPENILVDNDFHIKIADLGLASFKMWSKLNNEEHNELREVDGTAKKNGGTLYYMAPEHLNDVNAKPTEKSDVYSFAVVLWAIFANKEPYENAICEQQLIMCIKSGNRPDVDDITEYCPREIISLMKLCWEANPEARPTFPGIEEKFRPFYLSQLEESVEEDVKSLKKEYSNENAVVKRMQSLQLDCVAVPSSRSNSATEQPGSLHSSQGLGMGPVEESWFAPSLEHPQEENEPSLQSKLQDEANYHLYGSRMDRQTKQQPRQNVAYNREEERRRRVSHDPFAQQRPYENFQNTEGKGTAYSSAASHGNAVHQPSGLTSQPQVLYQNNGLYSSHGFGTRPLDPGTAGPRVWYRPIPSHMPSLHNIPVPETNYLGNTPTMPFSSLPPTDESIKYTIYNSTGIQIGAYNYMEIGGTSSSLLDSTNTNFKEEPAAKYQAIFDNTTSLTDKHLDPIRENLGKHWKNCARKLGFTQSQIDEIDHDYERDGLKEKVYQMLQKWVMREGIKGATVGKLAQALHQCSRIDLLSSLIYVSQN

[29] = target: ROS1 (human) (UniProt P08922)
[30] = target: SGK3 (human) (UniProt Q96BR1)
[31] = target: SLK (human) (UniProt Q9H2G2)
[32] = target: STK3 (human) (UniProt Q13188)
Chain of STK3 (human) (Q13188 whole entry, looked up): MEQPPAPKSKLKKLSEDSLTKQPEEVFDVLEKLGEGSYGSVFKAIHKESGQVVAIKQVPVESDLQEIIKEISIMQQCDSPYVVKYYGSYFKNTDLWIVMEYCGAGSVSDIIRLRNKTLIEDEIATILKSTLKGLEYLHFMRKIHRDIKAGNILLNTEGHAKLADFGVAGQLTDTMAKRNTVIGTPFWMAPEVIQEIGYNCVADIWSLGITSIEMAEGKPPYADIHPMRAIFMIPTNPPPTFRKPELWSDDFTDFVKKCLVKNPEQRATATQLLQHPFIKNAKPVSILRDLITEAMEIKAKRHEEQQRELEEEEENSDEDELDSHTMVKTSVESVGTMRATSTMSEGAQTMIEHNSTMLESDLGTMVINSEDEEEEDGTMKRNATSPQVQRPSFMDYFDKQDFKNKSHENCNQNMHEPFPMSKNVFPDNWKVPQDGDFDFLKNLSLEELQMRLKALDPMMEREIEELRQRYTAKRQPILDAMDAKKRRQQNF

[33] = target: STK35 (human) (UniProt Q8TDR2)
[34] = target: STK36 (human) (UniProt Q9NRP7)
[35] = target: TAOK1 (human) (UniProt Q7L7X3)
[36] = target: TAOK2 (human) (UniProt Q9UL54)
[37] = target: TIE1 (human) (UniProt P35590)
[38] = target: TNIK (human) (UniProt Q9UKE5)
[39] = target: TNNI3K (human) (UniProt Q59H18)
Chain of TNNI3K (human) (Q59H18 whole entry, looked up): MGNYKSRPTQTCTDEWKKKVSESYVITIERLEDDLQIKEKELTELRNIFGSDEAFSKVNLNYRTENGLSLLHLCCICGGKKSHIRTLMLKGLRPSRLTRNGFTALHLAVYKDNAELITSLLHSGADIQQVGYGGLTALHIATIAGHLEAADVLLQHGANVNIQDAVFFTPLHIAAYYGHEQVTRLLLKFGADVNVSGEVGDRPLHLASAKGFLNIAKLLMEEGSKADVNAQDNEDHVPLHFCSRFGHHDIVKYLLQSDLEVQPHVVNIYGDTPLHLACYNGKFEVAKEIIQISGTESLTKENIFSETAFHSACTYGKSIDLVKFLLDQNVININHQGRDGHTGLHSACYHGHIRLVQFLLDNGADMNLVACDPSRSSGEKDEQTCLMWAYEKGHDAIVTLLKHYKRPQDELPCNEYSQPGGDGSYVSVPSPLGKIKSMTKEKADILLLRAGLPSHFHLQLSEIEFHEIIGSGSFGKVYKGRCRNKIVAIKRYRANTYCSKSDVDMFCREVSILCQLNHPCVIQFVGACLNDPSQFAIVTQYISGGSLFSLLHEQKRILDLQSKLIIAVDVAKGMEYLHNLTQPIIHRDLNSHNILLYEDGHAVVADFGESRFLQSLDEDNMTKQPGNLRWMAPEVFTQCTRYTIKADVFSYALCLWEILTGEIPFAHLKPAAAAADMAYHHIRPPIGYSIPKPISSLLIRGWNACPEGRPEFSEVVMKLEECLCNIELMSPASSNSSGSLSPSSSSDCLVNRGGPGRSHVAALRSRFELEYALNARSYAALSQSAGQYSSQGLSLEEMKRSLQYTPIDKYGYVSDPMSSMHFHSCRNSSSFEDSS

[40] = target: TRPM6 (human) (UniProt Q9BX84)

SMILES | kinase still bound, per cent of control [1] [%] | kinase still bound, per cent of control [2] [%] | kinase still bound, per cent of control [3] [%] | kinase still bound, per cent of control [4] [%] | kinase still bound, per cent of control [5] [%] | kinase still bound, per cent of control [6] [%] | kinase still bound, per cent of control [7] [%] | kinase still bound, per cent of control [8] [%] | kinase still bound, per cent of control [9] [%] | kinase still bound, per cent of control [10] [%] | kinase still bound, per cent of control [11] [%] | kinase still bound, per cent of control [12] [%] | kinase still bound, per cent of control [13] [%] | kinase still bound, per cent of control [14] [%] | kinase still bound, per cent of control [15] [%] | kinase still bound, per cent of control [16] [%] | kinase still bound, per cent of control [17] [%] | kinase still bound, per cent of control [18] [%] | kinase still bound, per cent of control [19] [%] | kinase still bound, per cent of control [20] [%] | also measured
COc1cc(C(=O)N2CCC(N3CCN(C)CC3)CC2)ccc1Nc1ncc2c(n1)N(C)c1ccccc1C(=O)N2C | 50 | 47 | 83 | 98 | 100 | 86 | 34 | 100 | 100 | 92 | 100 | 93 | 60 | 97 | 98 | 100 | 1.2 | 99 | 97 | 8.7 | kinase still bound, per cent of control [21]: 80%; kinase still bound, per cent of control [22]: 47%; kinase still bound, per cent of control [23]: 96%; kinase still bound, per cent of control [24]: 33%; kinase still bound, per cent of control [25]: 62%; kinase still bound, per cent of control [26]: 99%; kinase still bound, per cent of control [27]: 100%; kinase still bound, per cent of control [28]: 99%; kinase still bound, per cent of control [29]: 12%; kinase still bound, per cent of control [30]: 95%; kinase still bound, per cent of control [31]: 100%; kinase still bound, per cent of control [32]: 71%; kinase still bound, per cent of control [33]: 100%; kinase still bound, per cent of control [34]: 97%; kinase still bound, per cent of control [35]: 28%; kinase still bound, per cent of control [36]: 65%; kinase still bound, per cent of control [37]: 100%; kinase still bound, per cent of control [38]: 100%; kinase still bound, per cent of control [39]: 100%; kinase still bound, per cent of control [40]: 100%
N#CCNC(=O)c1ccc(-c2ccnc(Nc3ccc(N4CCOCC4)cc3)n2)cc1 | 18 | 36 | 55 | 91 | 100 | 86 | 98 | 100 | 8.9 | 100 | 95 | 45 | 100 | 4.4 | 16 | 100 | 1.2 | 100 | 100 | 100 | kinase still bound, per cent of control [21]: 0%; kinase still bound, per cent of control [22]: 45%; kinase still bound, per cent of control [23]: 56%; kinase still bound, per cent of control [24]: 23%; kinase still bound, per cent of control [25]: 45%; kinase still bound, per cent of control [26]: 74%; kinase still bound, per cent of control [27]: 100%; kinase still bound, per cent of control [28]: 63%; kinase still bound, per cent of control [29]: 100%; kinase still bound, per cent of control [30]: 59%; kinase still bound, per cent of control [31]: 100%; kinase still bound, per cent of control [32]: 52%; kinase still bound, per cent of control [33]: 57%; kinase still bound, per cent of control [34]: 95%; kinase still bound, per cent of control [35]: 32%; kinase still bound, per cent of control [36]: 100%; kinase still bound, per cent of control [37]: 87%; kinase still bound, per cent of control [38]: 59%; kinase still bound, per cent of control [39]: 100%; kinase still bound, per cent of control [40]: 100%
